≈ marks a conversion by molar mass, not a printed value.
Columns and labels:
in vivo [1] = conditions: rat, iv
[2] = Solubility of the compound in Tris buffer at pH 8; assay type: physicochemical
[3] = Aqueous solubility of the compound at pH 6.7; assay type: physicochemical; conditions: aqueous medium
in vitro [4] = conditions: human, liver microsomes
[5] = Chemical stability of the compound in Tris buffer at pH 8 at 37 degC after 90 days by HPLC method; assay type: physicochemical; conditions: read-out: Stability
[6] = Clearance in rabbit at 0.5 mg/kg; assay type: ADME, organism-based, Oryctolagus cuniculus; conditions: in vivo
[7] = Half life in dog liver microsomes; assay type: ADME, Canis lupus familiaris, microsome
[8] = Chemical stability of the compound in phosphate buffer at pH 6.5 at 25 degC after 90 days by HPLC method; assay type: physicochemical; conditions: read-out: Stability
[9] = Volume of distribution at steady state in cynomolgus monkey at 2.03 mg/kg; assay type: ADME, organism-based, Macaca fascicularis; conditions: in vivo, read-out: Vdss
[10] = Half life in dog at 4.75 mg/kg; assay type: ADME, organism-based, Canis lupus familiaris; conditions: in vivo
[11] = Clearance in rat at 0.5 mg/kg; assay type: ADME, organism-based; conditions: in vivo
[12] = Chemical stability of the compound in Tris buffer at pH 8 at 50 degC after 90 days by HPLC method; assay type: physicochemical; conditions: read-out: Stability
[13] = Half life in rabbit at 0.5 mg/kg; assay type: ADME, organism-based, Oryctolagus cuniculus; conditions: in vivo
[14] = Total AUC in rat at 0.5 mg/kg; assay type: ADME, organism-based; parameters: dose 0.5 mg/kg, time AUCmax; conditions: in vivo
in vivo [15] = conditions: rat, iv; remark: listed apart in the source
[16] = Half life in rat at 0.5 mg/kg; assay type: ADME, organism-based; conditions: in vivo
[17] = Total AUC in dog at 4.75 mg/kg; assay type: ADME, organism-based, Canis lupus familiaris; parameters: dose 4.75 mg/kg, time AUCmax; conditions: in vivo
[18] = Chemical stability of the compound in Tris buffer at pH 8 at 25 degC after 90 days by HPLC method; assay type: physicochemical; conditions: read-out: Stability
[19] = Clearance in cynomolgus monkey at 2.03 mg/kg; assay type: ADME, organism-based, Macaca fascicularis; conditions: in vivo
[20] = Clearance in dog at 4.75 mg/kg; assay type: ADME, organism-based, Canis lupus familiaris; conditions: in vivo
in vivo [21] = conditions: rat, iv; remark: listed apart in the source
in vitro [22] = conditions: rat, liver microsomes
[23] = Chemical stability of the compound in phosphate buffer at pH 6.5 at 50 degC after 90 days by HPLC method; assay type: physicochemical; conditions: read-out: Stability
[24] = Chemical stability of the compound in phosphate buffer at pH 7.4 at 50 degC after 90 days by HPLC method; assay type: physicochemical; conditions: read-out: Stability
[25] = Aqueous solubility of the compound at pH 8.5; assay type: physicochemical; conditions: aqueous medium
[26] = Chemical stability of the compound in phosphate buffer at pH 6.5 at 37 degC after 90 days by HPLC method; assay type: physicochemical; conditions: read-out: Stability
[27] = Mean residence time in rabbit at 0.5 mg/kg; assay type: ADME, organism-based, Oryctolagus cuniculus; conditions: in vivo
[28] = Volume of distribution at steady state in rabbit at 0.5 mg/kg; assay type: ADME, organism-based, Oryctolagus cuniculus; conditions: in vivo, read-out: Vdss
[29] = Chemical stability of the compound in phosphate buffer at pH 7.4 at 37 degC after 90 days by HPLC method; assay type: physicochemical; conditions: read-out: Stability
[30] = Volume of distribution at steady state in dog at 4.75 mg/kg; assay type: ADME, organism-based, Canis lupus familiaris; conditions: in vivo, read-out: Vdss
[31] = Total AUC in rabbit at 0.5 mg/kg; assay type: ADME, organism-based, Oryctolagus cuniculus; parameters: dose 0.5 mg/kg, time AUCmax; conditions: in vivo
[32] = Half life in cynomolgus monkey at 2.03 mg/kg; assay type: ADME, organism-based, Macaca fascicularis; conditions: in vivo
[33] = Total AUC in cynomolgus monkey at 2.03 mg/kg; assay type: ADME, organism-based, Macaca fascicularis; parameters: dose 2.03 mg/kg, time AUCmax; conditions: in vivo
[34] = Lipophilicity, log D of the compound by HPLC method; assay type: physicochemical
[35] = Solubility of the compound in phosphate buffer at pH 7.4; assay type: physicochemical
[36] = Base dissociation constant, pKa of the compound; assay type: physicochemical
[37] = Mean residence time in cynomolgus monkey at 2.03 mg/kg; assay type: ADME, organism-based, Macaca fascicularis; conditions: in vivo
[38] = Aqueous solubility of the compound at pH 8.3; assay type: physicochemical; conditions: aqueous medium
[39] = Chemical stability of the compound in phosphate buffer at pH 7.4 at 25 degC after 90 days by HPLC method; assay type: physicochemical; conditions: read-out: Stability
in vivo [40] = conditions: rat, iv; remark: listed apart in the source
[41] = Mean residence time in rat at 0.5 mg/kg; assay type: ADME, organism-based; conditions: in vivo
[42] = Acid dissociation constant, pKa of the compound; assay type: physicochemical
physchem = conditions: phosphate buffer, pH 6.5
[43] = Volume of distribution at steady state in rat at 0.5 mg/kg; assay type: ADME, organism-based; conditions: in vivo, read-out: Vdss

CN1CCN(c2cccc3c2CCN(C(=O)/C=C/c2c(-n4cnnn4)ccc(Cl)c2F)[C@@H]3C(=O)Nc2ccc(C(=O)O)cc2)C(=O)C1 [BMS-962212]
half-life (in vivo [1]): 52.8 min
solubility [2]: 11000 µg/mL (≈ 16700 µM)
solubility [3]: 260 µg/mL (≈ 394 µM)
half-life (in vitro [4]): 108 to 120 min
remaining at […] [5]: 99.7%
clearance [6]: 43 mL/min/kg
half-life [7]: 120 min
remaining at […] [8]: 99.9%
Vd [9]: 1.16 L/kg
half-life [10]: 63 min
clearance [11]: 31 mL/min/kg
remaining at […] [12]: 94%
half-life [13]: 36 min
AUC [14]: 0.441 µM·h
Vd (in vivo [15]): 0.75 L/kg
half-life [16]: 13.2 min
AUC [17]: 7.76 µM·h
remaining at […] [18]: 99%
clearance [19]: 31 mL/min/kg
clearance [20]: 15 mL/min/kg
AUC (in vivo [21]): 0.309 µM·h
half-life (in vitro [22]): 59 min
remaining at […] [23]: 95.4%
remaining at […] [24]: 94.6%
solubility [25]: > 100000 µg/mL
remaining at […] [26]: 99.8%
MRT [27]: < 60 min
Vd [28]: 0.71 L/kg
remaining at […] [29]: 99%
Vd [30]: 1.02 L/kg
AUC [31]: 0.27 µM·h
half-life [32]: 46.8 min
AUC [33]: 1.59 µM·h
logD [34]: 1.4
solubility [35]: 1500 µg/mL (≈ 2280 µM)
pKa [36]: 4.7
MRT [37]: < 60 min
solubility [38]: > 25000 µg/mL
remaining at […] [39]: 100%
clearance (in vivo [40]): 16 mL/min/kg
MRT [41]: < 60 min
pKa [42]: 4.1
solubility at 24 h (physchem): 880 µg/mL (≈ 1340 µM)
Vd [43]: 0.32 L/kg

From ChEMBL document CHEMBL4028883 (J Med Chem, 2017)
